This is an account of results in publication PMC13210772, “Dual FLT3/MAPK14 Proteolysis-Targeting Chimera (PROTAC) Induces Potent Acute Myeloid Leukemia Cell Death” (Pharmaceuticals, 2026).

Holding throughout (format): cell-based
Assay [1] deals with T1, MAPK14 (Homo sapiens, UniProt Q16539). Briefly: Phosphorylation of MAPK14, immunoblot in MV4-11 cells. More on the design: endogenous in cells; host or cells: K562, RS4-11, MV4-11, MOLM-13 (A17); MV4-11 (A20). For orientation: A western blot detects proteins with antibodies after separation by electrophoresis.
Target sequence in this assay (Q16539 2-360 limits assumed): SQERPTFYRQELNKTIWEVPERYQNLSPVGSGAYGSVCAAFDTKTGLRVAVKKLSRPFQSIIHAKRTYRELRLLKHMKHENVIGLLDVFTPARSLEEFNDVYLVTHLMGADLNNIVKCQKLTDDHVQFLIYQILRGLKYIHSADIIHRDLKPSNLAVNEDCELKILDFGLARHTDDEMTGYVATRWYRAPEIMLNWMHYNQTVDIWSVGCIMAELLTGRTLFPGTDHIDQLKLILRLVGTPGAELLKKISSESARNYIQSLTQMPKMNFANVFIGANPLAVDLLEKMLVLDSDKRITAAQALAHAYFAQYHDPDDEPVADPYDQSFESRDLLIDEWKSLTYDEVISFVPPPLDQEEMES
The target in assay [2] is T1, MAPK14. In words: Global proteomics in MOLT-4 cells. The following applies: 50 nM, 5 h. More on the design: global protein expression profiles of MOLT-4 cells treated with 50 nM MA191 for 5 h; endogenous in cells; host or cells: MOLT-4. As to the method:
Proteome analyses can uncover unexpected targets of PROTACs. Since AML cells with FLT3-ITD are massively damaged by MA191, we applied it to MOLT-4 cells and analyzed them by proteomics.
MOLT4 cells were lysed using a buffer (50 mM NaCl, 8 M urea, 50 mM EPPS, pH 8.5, with phosphatase and protease inhibitors) and homogenized by bead beating (3 × 30 s at 2400 strokes/min). Protein concentration was determined using the Bradford assay. Fifty micrograms of protein per sample were reduced, alkylated, and precipitated using methanol/chloroform. The dried protein pellet was resuspended in 4 M urea/50 mM HEPES (pH 7.4) and diluted to 1 M urea with 200 mM EPPS (pH 8).
Proteins were digested with LysC and trypsin (1:50, enzyme:protein) for 12 h at 37 °C. Samples were acidified to pH 2–3 with formic acid and desalted using C18 solid-phase extraction. […]
diaPASEF raw data were analyzed using DIA-NN 1.8 in library-free mode, enabling peptide/protein identification, FDR control, protein assembly, and quantification through in silico digestion and deep learning-based predictions. […] Precursor quantification used Robust LC with RT-based cross-run normalization.
Proteins with low total abundance (<2000 × number of treatments) were excluded. […] Significant differences versus control were assessed using two-sided moderated t-tests via the limma package in R framework (R Development Core Team, 2014). […]
Target sequence in this assay (Q16539 whole entry): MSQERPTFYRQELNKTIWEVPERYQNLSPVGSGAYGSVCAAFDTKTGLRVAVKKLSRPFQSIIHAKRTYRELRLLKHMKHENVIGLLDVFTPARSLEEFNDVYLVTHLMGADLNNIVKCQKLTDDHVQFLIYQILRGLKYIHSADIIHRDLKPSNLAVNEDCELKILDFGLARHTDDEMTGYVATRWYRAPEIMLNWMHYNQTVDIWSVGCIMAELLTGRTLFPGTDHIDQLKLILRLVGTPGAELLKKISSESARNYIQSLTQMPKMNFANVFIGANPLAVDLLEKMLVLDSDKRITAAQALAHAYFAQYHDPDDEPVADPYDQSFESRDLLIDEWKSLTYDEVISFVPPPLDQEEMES

The next assay has as its target T2, FLT3-ITD (Homo sapiens, UniProt P36888, INS600HVDFREYEYD).
T2 sequence (P36888 with tags, fused parts or gaps INS600HVDFREYEYD): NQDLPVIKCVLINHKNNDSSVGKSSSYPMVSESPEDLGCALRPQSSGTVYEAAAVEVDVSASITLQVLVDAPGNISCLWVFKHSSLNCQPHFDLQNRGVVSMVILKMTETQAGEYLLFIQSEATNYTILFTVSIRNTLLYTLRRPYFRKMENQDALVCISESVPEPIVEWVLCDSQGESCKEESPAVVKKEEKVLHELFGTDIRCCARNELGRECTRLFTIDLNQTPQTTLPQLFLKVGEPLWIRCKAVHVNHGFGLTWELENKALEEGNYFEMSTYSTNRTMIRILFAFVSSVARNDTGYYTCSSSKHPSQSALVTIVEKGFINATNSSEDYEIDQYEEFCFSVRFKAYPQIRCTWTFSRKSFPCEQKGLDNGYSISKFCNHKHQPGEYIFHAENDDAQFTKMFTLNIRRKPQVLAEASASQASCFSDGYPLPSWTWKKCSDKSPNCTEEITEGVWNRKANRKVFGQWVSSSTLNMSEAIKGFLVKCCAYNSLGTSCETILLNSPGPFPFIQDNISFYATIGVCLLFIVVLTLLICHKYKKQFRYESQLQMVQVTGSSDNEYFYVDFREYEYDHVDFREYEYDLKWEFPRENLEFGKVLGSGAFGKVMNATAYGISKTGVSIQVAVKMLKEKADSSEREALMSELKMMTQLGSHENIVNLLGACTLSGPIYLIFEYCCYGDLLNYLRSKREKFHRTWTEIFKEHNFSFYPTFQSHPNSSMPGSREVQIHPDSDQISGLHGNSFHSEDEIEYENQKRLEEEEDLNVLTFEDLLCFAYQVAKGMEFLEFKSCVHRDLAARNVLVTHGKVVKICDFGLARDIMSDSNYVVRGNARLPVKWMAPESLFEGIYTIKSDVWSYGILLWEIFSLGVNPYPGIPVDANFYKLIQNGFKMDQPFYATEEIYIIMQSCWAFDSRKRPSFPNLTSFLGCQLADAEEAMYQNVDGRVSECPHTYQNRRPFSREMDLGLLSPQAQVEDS
Briefly: Phosphorylation of FLT3-ITD, immunoblot in MV4-11 cells. More on the design: We treated MV4-11 cells with the synthesized degraders of FLT3; endogenous in cells; host or cells: MV4-11. From the text: We aimed to delineate if the FLT3 inhibitor part of MA191 acts as a MAPK14 inhibitor in MV4-11 cells. We used the phosphorylation of FLT3-ITD and the phosphorylation of MAPK14 as markers for their activation. […] This finding is consistent with the detection of MAPK14 in the kinase selectivity profiling approach (Figure 3; MAPK14 is termed p38α therein).
Figure 7 Targeting MAPK14 augments anti-leukemic effects of an inhibition of FLT3-ITD. (a) The graphs show the mRNA levels of MAPK14 in leukemia cells and normal blood cells. […] All immunoblots show data from at least two independent repetitions. (c) Model for how inhibition of various signaling pathways affects AML cells (red, cytoplasm, blue, nucleus).

Consider `Cc1ncsc1-c1ccc([C@H](C)NC(=O)[C@@H]2C[C@@H](O)CN2C(=O)[C@@H](NC(=O)[C@H]2CC[C@H](C(=O)N3CCN(CCNC(=O)c4cc(Oc5ccc(NC(=O)Nc6cc(C(C)(C)C)on6)cc5)ccn4)CC3)CC2)C(C)(C)C)cc1` [MA191, 4-(4-(3-(5-(tert-Butyl)isoxazol-3-yl)ureido)phenoxy)-N-(2-(4-(trans-4-(((S)-1-((2S,4R)-4-hydroxy-2-(((S)-1-(4-(4-methylthiazol-5-yl)phenyl)ethyl)carbamoyl)pyrrolidin-1-yl)-3,3-dimethyl-1-oxobutan-2-yl)carbamoyl)cyclohexanecarbonyl)piperazin-1-yl)ethyl)picolinamide], for which the “phosphorylated MAPK14 (p-MAPK14)” value on MAPK14 [1] is given as “loss of p-MAPK14 together with MAPK14”. In addition, on MAPK14 [2], the “MAPK14 protein level, proteome analysis” value is on record as “striking downregulation of MAPK14”. Besides, the “phosphorylation of FLT3-ITD” value on FLT3-ITD is on record as “inhibited the phosphorylation of FLT3-ITD”.
